± gives the standard deviation of the averaged measurements.
Columns and labels:
Test in all cases: relative cell number vs DMSO control (72 h) (% of DMSO); higher = less growth inhibition (more cells)
Details in all cases: sgRNA knockout: sgNT
[1] = tested on: HCC-38
Experimental: (§1)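 QMAP-Seq: a pool of 5 breast cancer cell lines (ZR-75-1, SKBR3, HCC-38, MDA-MB-231, BT-20), each carrying 12 doxycycline-inducible Cas9 sgRNA perturbations (11 knockouts plus non-targeting sgNT), was treated with compounds for 72 h at four 10-fold doses (10 nM-10 uM or 1 nM-1 uM range). Barcodes were amplified and sequenced, and cell number was interpolated from 293T spike-in standard curves. The result is expressed as % of the median of DMSO wells. Two biological replicates.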

[2] = tested on: BT-20
Experimental: as §1

[3] = tested on: MDA-MB-231
Experimental: as §1

[4] = tested on: SKBR3
Experimental: as §1

[5] = tested on: ZR-75-1
Experimental: as §1

`S=c1nc[nH]c2nc[nH]c12` [6-Mercaptopurine] gave a relative cell number ([1]; 10 nM) of 99.6 ± 7, a relative cell number ([1]; 100 nM) of 99.7 ± 5.1 and a relative cell number ([1]; 1000 nM) of 81.3 ± 10. For the same compound, the relative cell number ([1]; 10000 nM) was 61.3 ± 2.1, the relative cell number ([2]; 10 nM) was 97.8 ± 13 and the relative cell number ([2]; 100 nM) was 101 ± 4.8. For the same compound, the relative cell number ([2]; 1000 nM) was 85.3 ± 6, the relative cell number ([2]; 10000 nM) was 62.7 ± 4.4 and the relative cell number ([3]; 10 nM) was 120 ± 2.9. For the same compound, the relative cell number ([3]; 100 nM) was 79.8 ± 1.3, the relative cell number ([3]; 1000 nM) was 60.6 ± 15 and the relative cell number ([3]; 10000 nM) was 63.5 ± 7.8. The relative cell number ([4]; 10 nM) was 112 ± 11, the relative cell number ([4]; 100 nM) was 83.1 ± 39 and the relative cell number ([4]; 1000 nM) was 78.3 ± 21. For the same compound, the relative cell number ([4]; 10000 nM) was 48.4 ± 25, the relative cell number ([5]; 10 nM) was 100 ± 55 and the relative cell number ([5]; 100 nM) was 66.5 ± 5.7. For the same compound, the relative cell number ([5]; 1000 nM) was 100 ± 59 and the relative cell number ([5]; 10000 nM) was 55.5 ± 22.
`Cc1sc2c(c1C)C(c1ccc(Cl)cc1)=N[C@@H](CC(=O)OC(C)(C)C)c1nnc(C)n1-2` [(+)-JQ1] showed a relative cell number ([1]; 10 nM) of 104 ± 4.2, a relative cell number ([1]; 100 nM) of 112 ± 33 and a relative cell number ([1]; 1000 nM) of 93.2 ± 1.9. It also gave a relative cell number ([1]; 10000 nM) of 65.3 ± 1.1, a relative cell number ([2]; 10 nM) of 99.3 ± 17 and a relative cell number ([2]; 100 nM) of 108 ± 1.9. It also gave a relative cell number ([2]; 1000 nM) of 108 ± 4.7, a relative cell number ([2]; 10000 nM) of 93.5 ± 4 and a relative cell number ([3]; 10 nM) of 109 ± 30. For the same compound, the relative cell number ([3]; 100 nM) was 99.7 ± 4, the relative cell number ([3]; 1000 nM) was 105.4 ± 0.35 and the relative cell number ([3]; 10000 nM) was 50.7 ± 18. For the same compound, the relative cell number ([4]; 10 nM) was 102 ± 17, the relative cell number ([4]; 100 nM) was 119 ± 21 and the relative cell number ([4]; 1000 nM) was 91.5 ± 2.7. For the same compound, the relative cell number ([4]; 10000 nM) was 62.6 ± 3.5, the relative cell number ([5]; 10 nM) was 98.5 ± 22 and the relative cell number ([5]; 100 nM) was 122 ± 50. For the same compound, the relative cell number ([5]; 1000 nM) was 86.2 ± 21 and the relative cell number ([5]; 10000 nM) was 49.4 ± 1.2.
In the case of `CN(C)CC[C@H](CSc1ccccc1)Nc1ccc(S(=O)(=O)NC(=O)c2ccc(N3CCN(Cc4ccccc4-c4ccc(Cl)cc4)CC3)cc2)cc1[N+](=O)[O-]` [ABT737], the relative cell number ([1]; 10 nM) is reported as 104 ± 3.7, the relative cell number ([1]; 100 nM) is reported as 84 ± 12 and the relative cell number ([1]; 1000 nM) is reported as 88.2 ± 4.7. The relative cell number ([1]; 10000 nM) was 62.5 ± 18, the relative cell number ([2]; 10 nM) was 93.2 ± 26 and the relative cell number ([2]; 100 nM) was 97.5 ± 10. The relative cell number ([2]; 1000 nM) was 94.8 ± 13, the relative cell number ([2]; 10000 nM) was 69.2 ± 5.1 and the relative cell number ([3]; 10 nM) was 96.3 ± 18. It also gave a relative cell number ([3]; 100 nM) of 102 ± 21, a relative cell number ([3]; 1000 nM) of 90.4 ± 30 and a relative cell number ([3]; 10000 nM) of 69.4 ± 16. The relative cell number ([4]; 10 nM) was 84.5 ± 11, the relative cell number ([4]; 100 nM) was 98.2 ± 4.7 and the relative cell number ([4]; 1000 nM) was 85.7 ± 9.8. It also gave a relative cell number ([4]; 10000 nM) of 93.31 ± 0.55, a relative cell number ([5]; 10 nM) of 74.8 ± 17 and a relative cell number ([5]; 100 nM) of 117 ± 40. For the same compound, the relative cell number ([5]; 1000 nM) was 124 ± 25 and the relative cell number ([5]; 10000 nM) was 73.9 ± 11.
`c1cc(Nc2cc(C3CC3)[nH]n2)nc(Nc2ccc3nc[nH]c3c2)n1` [APY29] showed a relative cell number ([1]; 10 nM) of 91.3 ± 16, a relative cell number ([1]; 100 nM) of 64.3 ± 3.1 and a relative cell number ([1]; 1000 nM) of 26.6 ± 2.5. The relative cell number ([1]; 10000 nM) was 23.3 ± 0.34, the relative cell number ([2]; 10 nM) was 120 ± 4.3 and the relative cell number ([2]; 100 nM) was 79.9 ± 16. The relative cell number ([2]; 1000 nM) was 88.3 ± 10, the relative cell number ([2]; 10000 nM) was 40.7 ± 5.9 and the relative cell number ([3]; 10 nM) was 109 ± 5.4. It also gave a relative cell number ([3]; 100 nM) of 52.8 ± 4.2, a relative cell number ([3]; 1000 nM) of 17.1 ± 3.7 and a relative cell number ([3]; 10000 nM) of 10.7 ± 3.8. The relative cell number ([4]; 10 nM) was 110 ± 9, the relative cell number ([4]; 100 nM) was 40.6 ± 1.2 and the relative cell number ([4]; 1000 nM) was 12.5 ± 6.6. For the same compound, the relative cell number ([4]; 10000 nM) was 5.99 ± 1.9, the relative cell number ([5]; 10 nM) was 119 ± 26 and the relative cell number ([5]; 100 nM) was 74 ± 39. For the same compound, the relative cell number ([5]; 1000 nM) was 23.6 ± 1.6 and the relative cell number ([5]; 10000 nM) was 10.7 ± 9.5.
With `Clc1ccc(C2(c3ccc(-c4cn[nH]c4)cc3)CCNCC2)cc1` [AT7867] the relative cell number ([1]; 10 nM) was 91.3 ± 5.8, the relative cell number ([1]; 100 nM) was 64.1 ± 14 and the relative cell number ([1]; 1000 nM) was 45.4 ± 2.5. It also gave a relative cell number ([1]; 10000 nM) of 50.5 ± 2.3, a relative cell number ([2]; 10 nM) of 79.5 ± 20 and a relative cell number ([2]; 100 nM) of 108 ± 32. It also gave a relative cell number ([2]; 1000 nM) of 77.8 ± 12, a relative cell number ([2]; 10000 nM) of 24.8 ± 5.2 and a relative cell number ([3]; 10 nM) of 59.5 ± 17. It also gave a relative cell number ([3]; 100 nM) of 84.9 ± 1.7, a relative cell number ([3]; 1000 nM) of 35.9 ± 6 and a relative cell number ([3]; 10000 nM) of 14.5 ± 2.1. The relative cell number ([4]; 10 nM) was 70.8 ± 4.4, the relative cell number ([4]; 100 nM) was 102 ± 5 and the relative cell number ([4]; 1000 nM) was 59.38 ± 0.082. For the same compound, the relative cell number ([4]; 10000 nM) was 10.8 ± 2.8, the relative cell number ([5]; 10 nM) was 61.2 ± 35 and the relative cell number ([5]; 100 nM) was 64.4 ± 20. The relative cell number ([5]; 1000 nM) was 66.2 ± 5.2 and the relative cell number ([5]; 10000 nM) was 11.1 ± 1.7.
In the case of `COc1cc(CCc2cc(NC(=O)c3ccc(N4CC(C)NC(C)C4)cc3)n[nH]2)cc(OC)c1` (stereo not given) [AZD4547], the relative cell number ([1]; 10 nM) is reported as 88.6 ± 1.6, the relative cell number ([1]; 100 nM) is reported as 64.5 ± 6.9 and the relative cell number ([1]; 1000 nM) is reported as 54.6 ± 1.7. The relative cell number ([1]; 10000 nM) was 46.8 ± 1.9, the relative cell number ([2]; 10 nM) was 66.6 ± 0.77 and the relative cell number ([2]; 100 nM) was 94.7 ± 4.5. It also gave a relative cell number ([2]; 1000 nM) of 81.9 ± 15, a relative cell number ([2]; 10000 nM) of 56.5 ± 2.4 and a relative cell number ([3]; 10 nM) of 79.2 ± 13. The relative cell number ([3]; 100 nM) was 100.2 ± 0.6, the relative cell number ([3]; 1000 nM) was 99.5 ± 11 and the relative cell number ([3]; 10000 nM) was 40.1 ± 3. It also gave a relative cell number ([4]; 10 nM) of 62.3 ± 26, a relative cell number ([4]; 100 nM) of 83 ± 9.8 and a relative cell number ([4]; 1000 nM) of 94.1 ± 33. The relative cell number ([4]; 10000 nM) was 51 ± 14, the relative cell number ([5]; 10 nM) was 82.1 ± 31 and the relative cell number ([5]; 100 nM) was 68.3 ± 13. It also gave a relative cell number ([5]; 1000 nM) of 83.9 ± 5.3 and a relative cell number ([5]; 10000 nM) of 21.3 ± 10.

— the supplement of paper PMC7661543
